Patent US20070082945A1, “Discodermolide compositions” (priority 2003, published 2007)
In brackets after ≈: the same amount, converted by molar mass.

Key:
[1] = Storage stability of infusion concentrate vials and infusion solution; assay type: physicochemical
Description: An infusion concentrate comprising 2 mg of discodermolide is dissolved in 98-100% propylene glycol (PG) (1.0 mL) and charged to 6 mL vials. The vials are used for storage and shipment. The vials are stable for a period of at least 2 years at a temperature of 2-8° C. The vehicle is prepared in a separate 2 mL single dose vial. Each mL of solution contains 7.3 mg of sodium chloride USP, and 163 mg of ethanol (EtOH) in water for injection(saline) (16.3% ethanol in 0.9% sodium chloride solution, 2 mL fill). The storage condition is 25° C. for the vehicle. Prior to i.v. administration, 1.6 mL of the vehicle is withdrawn with a sterile disposable syringe and injected into the vial containing the discodermolide. The solution is gently shaken until a clear homogeneous solution for infusion is obtained containing 0.77 mg/mL discodermolide in 40% propylene glycol, 10% ethanol and 50% normal saline. The ratio of discodermolide concentrate to the diluent vehicle in the diluted solution is 1:1.6 v/v. The i.v. solution thus formed is stable for a period of 8 hours at room temperature.

[2] = Solubility of discodermolide in various solvent systems measured by HPLC; assay type: physicochemical
Description: The solubility of discodermolide in various solvent systems is measured by HPLC and the results shown below: […]

[3] = Stability of solution diluted 1:1.6 with 16.3% w/v ethanol in 0.9% sodium chloride, ambient conditions; assay type: physicochemical; settings: 0.77 mg/mL solution for infusion
Description: In this example, stability of discodermolide in solution diluted 1:1.6 with 16.3% w/v, ethanol in 0.9% sodium chloride solution (0.77 mg/mL) under ambient conditions is measured. Table 5 describes the amount of degradation product formed over a period of up to 24 hours. The stability is analyzed by determining formation of degradation products in each of the infusion solution as a function of time and temperature. Each sample is analyzed y HPLC with a UV detector. The solution for infusion was prepared by diluting a 2.0 mg/ml discodermolide concentrate with 16.3% ethanol in 0.9% sodium chloride solution in a 1:1.6 ration.

[4] = Solubility and stability in aqueous media; assay type: physicochemical
tubulin = settings: competition with paclitaxel; cited from earlier work
[5] = Stability of 16 mg/mL infusion concentrate in propylene glycol (HPLC, UV detector), Example 13; assay type: physicochemical; settings: for Assay / Total Impurities: 16 mg/mL infusion concentrate in PG
Description: The stability of an infusion concentrate of 16 mg/mL in propylene glycol at different temperatures is determined. Table 3 describes the amount of degradation product formed over a period of up to 12 weeks. The stability is analyzed by determining formation of degradation products in each of the infusion concentrates as a function of time and temperature. Each sample is analyzed by HPLC with a UV detector.

[6] = Stability of infusion concentrates diluted 1:5 with 20/80 propylene glycol/0.9% sodium chloride, ambient conditions; assay type: physicochemical
Description: In this example, stability of discodermolide infusion concentrates diluted 1:5 with 20/80 propylene glycol/0.9% sodium chloride solution under ambient conditions is measured. Table 4 describes the amount of degradation product formed over a period of up to 24 hours. The stability is analyzed by determining formation of degradation products in each of the infusion solutions as a function of time and temperature. Each sample is analyzed by HPLC with a UV detector. The solution for infusion was prepared by diluting discodermolide concentrates, 0.6 mg/mL, 2.0 mg/mL and 3.0 mg/mL, with 20/80 propylene glycol/0.9% sodium chloride solution in a 1:5 ratio. The discodermolide concentrate solutions of 0.6 mg/mL, 2.0 mg/mL and 3.0 mg/mL yielded discodermolide solutions for infusions 0.12 mg/mL, 0.4 mg/mL and 0.6 mg/mL, respectively.

[7] = normal saline (0.9% sodium chloride)
[8] = 0.12 mg/mL solution for infusion, 0 hours
[9] = 0.12 mg/mL solution for infusion, 2 hours
[10] = 0.12 mg/mL solution for infusion, 4 hours
[11] = 0.12 mg/mL solution for infusion, 8 hours
[12] = 0.12 mg/mL solution for infusion, 24 hours
[13] = 0.4 mg/mL solution for infusion, 0 hours
[14] = 0.4 mg/mL solution for infusion, 2 hours
[15] = 0.4 mg/mL solution for infusion, 4 hours
[16] = 0.4 mg/mL solution for infusion, 8 hours
[17] = 0.4 mg/mL solution for infusion, 24 hours
[18] = 0.6 mg/mL solution for infusion, 0 hours
[19] = 0.6 mg/mL solution for infusion, 2 hours
[20] = 0.6 mg/mL solution for infusion, 4 hours
[21] = 0.6 mg/mL solution for infusion, 8 hours
[22] = 0.6 mg/mL solution for infusion, 24 hours

C=C/C=C\C(C)[C@H](OC(N)=O)[C@@H](C)[C@H](O)[C@@H](C)C/C(C)=C\C(C)C(O)[C@@H](C)/C=C\[C@@H](O)C[C@@H]1OC(=O)[C@H](C)C(O)C1C (single isomer, unassigned; (+)) [discodermolide, (+)-Discodermolide]
Period of stability of i.v. solution ([1]; 0.77 mg/mL in 40% propylene glycol, 10% ethanol, 50% normal saline, room temperature): 8 h
Period of stability of infusion concentrate vials ([1]; 2 mg discodermolide in 1.0 mL 98-100% propylene glycol, 2-8° C.): at least 2 years
solubility ([2]; 20% PEG 300/80% normal saline, aqueous with cosolvent or surfactant or cyclodextrin): 20 µg/mL (≈ 33.7 µM)
solubility ([2]; 20% propylene glycol/80% normal saline, aqueous with cosolvent or surfactant or cyclodextrin, 20% PG/80% normal saline): 130 µg/mL (≈ 219 µM)
solubility ([2]; 30% ethanol/70% normal saline, aqueous with cosolvent or surfactant or cyclodextrin): 200 µg/mL (≈ 337 µM)
solubility ([2]; 60% PEG 300/40% normal saline, aqueous with cosolvent or surfactant or cyclodextrin): 400 µg/mL (≈ 674 µM)
solubility ([2]; 60% ethanol/40% normal saline, aqueous with cosolvent or surfactant or cyclodextrin): 2300 µg/mL (≈ 3870 µM)
solubility ([2]; 60% propylene glycol/40% normal saline, aqueous with cosolvent or surfactant or cyclodextrin, 60% PG/40% normal saline): 530 µg/mL (≈ 893 µM)
solubility ([2]; 100% PEG 300, organic solvent or mixture): > 20000 µg/mL
solubility ([2]; 100% ethanol, organic solvent or mixture): > 20000 µg/mL
solubility ([2]; 100% propylene glycol, organic solvent or mixture, 100% PG): > 20000 µg/mL
Total Impurities ([3]; 0 hours): 0.20 % area
Total Impurities ([3]; 2 hours): 0.23 % area
Total Impurities ([3]; 4 hours): 0.34 % area
Total Impurities ([3]; 8 hours): 0.47 % area
Total Impurities ([3]; 24 hours): 0.80 % area
Solubility in aqueous solvents and aqueous-organic mixtures [4]: poor solubility
Stability in aqueous solvents and aqueous-organic mixtures [4]: poor stability
Degradation on dilution of infusion concentrate [4, 7]: degrades to the hydrolysis product
Precipitation on dilution of infusion concentrate [4, 7]: precipitation of the discodermolide is observed
Solubility in water ([4]; water): practically insoluble
Binding to tubulin (tubulin): binds to tubulin competitively with paclitaxel
Assay ([5]; 0-time): 103.9 % label claim
Total Impurities ([5]; 0-time): 0.59%
Assay ([5]; 5° C., 4 weeks): 102.2 % label claim
Total Impurities ([5]; 5° C., 4 weeks): 0.60%
Assay ([5]; 5° C., 8 weeks): 101.4 % label claim
Total Impurities ([5]; 5° C., 8 weeks): 0.48%
Assay ([5]; 5° C., 12 weeks): 100.7 % label claim
Total Impurities ([5]; 5° C., 12 weeks): 0.49%
Assay ([5]; 25° C./60% RH, 3 weeks): 100.7 % label claim
Total Impurities ([5]; 25° C./60% RH, 3 weeks): 0.56%
Assay ([5]; 25° C./60% RH, 4 weeks): 103.6 % label claim
Total Impurities ([5]; 25° C./60% RH, 4 weeks): 0.66%
Assay ([5]; 25° C./60% RH, 8 weeks): 100.5 % label claim
Total Impurities ([5]; 25° C./60% RH, 8 weeks): 0.68%
Assay ([5]; 25° C./60% RH, 12 weeks): 100.1 % label claim
Total Impurities ([5]; 25° C./60% RH, 12 weeks): 0.65%
Assay ([5]; 50° C./75% RH, 3 weeks): 99.4 % label claim
Total Impurities ([5]; 50° C./75% RH, 3 weeks): 0.65%
Assay ([5]; 50° C./75% RH, 4 weeks): 101.6 % label claim
Total Impurities ([5]; 50° C./75% RH, 4 weeks): 0.65%
Assay ([5]; 50° C./75% RH, 8 weeks): 99.5 % label claim
Total Impurities ([5]; 50° C./75% RH, 8 weeks): 0.65%
Assay ([5]; 50° C./75% RH, 12 weeks): 99.2 % label claim
Total Impurities ([5]; 50° C./75% RH, 12 weeks): 0.62%
Degradation profile and long term stability ([5]; 16 mg/mL infusion concentrate in propylene glycol): comparable to 2.0 mg/mL
Assay [6, 8]: 105.6 % label claim
Total Impurities [6, 8]: 0.17 % area
Assay [6, 9]: 105.6 % label claim
Total Impurities [6, 9]: 0.17 % area
Assay [6, 10]: 106.4 % label claim
Total Impurities [6, 10]: 0.21 % area
Assay [6, 11]: 107.0 % label claim
Total Impurities [6, 11]: 0.25 % area
Assay [6, 12]: 104.6 % label claim
Total Impurities [6, 12]: 0.33 % area
Assay [6, 13]: 102.3 % label claim
Total Impurities [6, 13]: 0.23 % area
Assay [6, 14]: 101.8 % label claim
Total Impurities [6, 14]: 0.97 % area
Assay [6, 15]: 102.2 % label claim
Total Impurities [6, 15]: 1.84 % area
Assay [6, 16]: 102.0 % label claim
Total Impurities [6, 16]: 3.35 % area
Assay [6, 17]: 94.8 % label claim
Total Impurities [6, 17]: 6.21 % area
Assay [6, 18]: 103.0 % label claim
Total Impurities [6, 18]: 0.28 % area
Assay [6, 19]: 100.0 % label claim
Total Impurities [6, 19]: 1.49 % area
Assay [6, 20]: 99.4 % label claim
Total Impurities [6, 20]: 2.19 % area
Assay [6, 21]: 98.8 % label claim
Total Impurities [6, 21]: 3.68 % area
Assay [6, 22]: 89.9 % label claim
Total Impurities [6, 22]: 8.90 % area
